Laboratory results from patent US12459974B2, “Bicyclic peptide ligands specific for Nectin-4” (priority 2018, dated 2025).
*1 amine or outer side, *2 acyl side, *3 side chain or, on linkers, in order; H or OH if unused. Where a SMILES comes first, the peptide text is derived from it. Bridges are numbered along the chain shown (N, C = ends). TATA = O=C(CC[*:1])N1CN(C(=O)CC[*:2])CN(C(=O)CC[*:3])C1

biological target: T1, human Nectin-4 (Homo sapiens, UniProt Q96NY8); assay: Nectin-4 competition binding assay (fluorescence polarisation); conditions: not given
T1 sequence (Q96NY8 32-510): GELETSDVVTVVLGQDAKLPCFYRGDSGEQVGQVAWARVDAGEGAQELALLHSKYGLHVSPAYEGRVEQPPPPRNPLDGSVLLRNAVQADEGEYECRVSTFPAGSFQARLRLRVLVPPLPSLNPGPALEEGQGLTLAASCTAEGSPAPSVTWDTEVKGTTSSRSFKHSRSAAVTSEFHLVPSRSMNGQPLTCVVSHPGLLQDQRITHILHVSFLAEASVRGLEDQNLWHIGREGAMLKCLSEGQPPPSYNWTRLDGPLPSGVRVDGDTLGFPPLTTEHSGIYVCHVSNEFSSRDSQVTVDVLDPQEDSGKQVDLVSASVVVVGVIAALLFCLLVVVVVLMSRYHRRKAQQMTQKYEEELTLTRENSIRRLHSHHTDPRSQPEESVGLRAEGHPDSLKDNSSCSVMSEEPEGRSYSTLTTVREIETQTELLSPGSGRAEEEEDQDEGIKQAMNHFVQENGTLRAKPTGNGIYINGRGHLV
In short: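 Ki derived by cubic-equation fit of mP data, with tracer peptide concentration, its Kd and Nectin-4 level as fixed inputs. Competition set up by adding 2-fold peptide dilutions (≤5% DMSO), then Nectin-4, then fluorescent peptide; polarisation measured as for direct binding.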

Structure (SMILES) | Ki
CC[C@H](C)[C@@H]1NC(=O)[C@@H]2CCCN2C(=O)[C@H](Cc2c[nH]c3ccccc23)NC(=O)[C@H](CO)NC(=O)[C@H](Cc2c[nH]c3ccccc23)NC(=O)[C@H](CC(=O)O)NC(=O)[C@H](CCCCN)NC(=O)[C@H](CCSC)NC(=O)[C@@H]2CSCCC(=O)N3CN(CN(C3)C(=O)CCSC[C@H](NC(C)=O)C(=O)N3CCC[C@H]3C(=O)N[C@@H](Cc3ccccc3)C(=O)NCC(=O)N2)C(=O)CCSC[C@@H](C(N)=O)NC(=O)[C@H](Cc2c[nH]c3ccccc23)NC1=O [BCY7661, Ac-(SEQ ID NO: 15)] (Ac-CPFGCMKDWSWPIWC-NH2; linker 1-5-15 via TATA; C-terminus assumed) | 29.4 nM

same assay, conditions: competition with fluorescent peptide SEQ ID NO: 217; read-out: Ki

Ki | Structure (SMILES)
31 nM | CC[C@H](C)[C@@H]1NC(=O)[C@H](CCCNC(=N)N)NC(=O)[C@H](CC(N)=O)NC(=O)[C@@H]2CSCCC(=O)N3CN(CN(C3)C(=O)CCSC[C@H](NC(=O)[C@H](Cc3c[nH]c4ccccc34)NC(=O)[C@H](CCCCN)NC(=O)[C@H](C)NC(C)=O)C(=O)N[C@@H](C)C(=O)N3CCC[C@H]3C(=O)N[C@@H](CC(C)C)C(=O)N[C@@H](CO)C(=O)N[C@@H](CC(=O)O)C(=O)N[C@@H](Cc3ccc(O)cc3)C(=O)N[C@@H](Cc3c[nH]c4ccccc34)C(=O)N2)C(=O)CCSC[C@@H](C(N)=O)NC1=O [BCY7622, Ac-AKW-(SEQ ID NO: 34)] (Ac-AKWCAPLSDYWCNRIC-NH2; linker 4-12-16 via TATA; C-terminus assumed)
21 nM | CC[C@H](C)[C@@H]1NC(=O)[C@H](CCCNC(=N)N)NC(=O)[C@H](CC(N)=O)NC(=O)[C@@H]2CSCCC(=O)N3CN(CN(C3)C(=O)CCSC[C@H](NC(=O)[C@H](Cc3c[nH]c4ccccc34)NC(=O)[C@H](C)NC(=O)[C@H](CCC(N)=O)NC(C)=O)C(=O)N[C@@H](C)C(=O)N3CCC[C@H]3C(=O)N[C@@H](CC(C)C)C(=O)N[C@@H](CO)C(=O)N[C@@H](CC(=O)O)C(=O)N[C@@H](Cc3ccc(O)cc3)C(=O)N[C@@H](Cc3c[nH]c4ccccc34)C(=O)N2)C(=O)CCSC[C@@H](C(N)=O)NC1=O [BCY7623, Ac-QAW-(SEQ ID NO: 34)] (Ac-QAWCAPLSDYWCNRIC-NH2; linker 4-12-16 via TATA; C-terminus assumed)
571 nM | CC[C@H](C)[C@@H]1NC(=O)[C@H](CCCNC(=N)N)NC(=O)[C@H](CC(N)=O)NC(=O)[C@@H]2CSCCC(=O)N3CN(CN(C3)C(=O)CCSC[C@H](NC(=O)[C@H](C)NC(=O)[C@H](CCCCN)NC(=O)[C@H](CCC(N)=O)NC(C)=O)C(=O)N[C@@H](C)C(=O)N3CCC[C@H]3C(=O)N[C@@H](CC(C)C)C(=O)N[C@@H](CO)C(=O)N[C@@H](CC(=O)O)C(=O)N[C@@H](Cc3ccc(O)cc3)C(=O)N[C@@H](Cc3c[nH]c4ccccc34)C(=O)N2)C(=O)CCSC[C@@H](C(N)=O)NC1=O [BCY7624, Ac-QKA-(SEQ ID NO: 34)] (Ac-QKACAPLSDYWCNRIC-NH2; linker 4-12-16 via TATA; C-terminus assumed)
141 nM | CC[C@H](C)[C@@H]1NC(=O)[C@H](CCCNC(=N)N)NC(=O)[C@H](CC(N)=O)NC(=O)[C@@H]2CSCCC(=O)N3CN(CN(C3)C(=O)CCSC[C@H](NC(=O)[C@H](Cc3c[nH]c4ccccc34)NC(=O)[C@H](CCCCN)NC(=O)[C@H](CCC(N)=O)NC(C)=O)C(=O)N[C@@H](C)C(=O)N[C@@H](C)C(=O)N[C@@H](CC(C)C)C(=O)N[C@@H](CO)C(=O)N[C@@H](CC(=O)O)C(=O)N[C@@H](Cc3ccc(O)cc3)C(=O)N[C@@H](Cc3c[nH]c4ccccc34)C(=O)N2)C(=O)CCSC[C@@H](C(N)=O)NC1=O [BCY7625, Ac-QKW-(SEQ ID NO: 103)] (Ac-QKWCAALSDYWCNRIC-NH2; linker 4-12-16 via TATA; C-terminus assumed)
101 nM | CC[C@H](C)[C@@H]1NC(=O)[C@H](CCCNC(=N)N)NC(=O)[C@H](CC(N)=O)NC(=O)[C@@H]2CSCCC(=O)N3CN(CN(C3)C(=O)CCSC[C@H](NC(=O)[C@H](Cc3c[nH]c4ccccc34)NC(=O)[C@H](CCCCN)NC(=O)[C@H](CCC(N)=O)NC(C)=O)C(=O)N[C@@H](C)C(=O)N3CCC[C@H]3C(=O)N[C@@H](CC(C)C)C(=O)N[C@@H](C)C(=O)N[C@@H](CC(=O)O)C(=O)N[C@@H](Cc3ccc(O)cc3)C(=O)N[C@@H](Cc3c[nH]c4ccccc34)C(=O)N2)C(=O)CCSC[C@@H](C(N)=O)NC1=O [BCY7627, Ac-QKW-(SEQ ID NO: 104)] (Ac-QKWCAPLADYWCNRIC-NH2; linker 4-12-16 via TATA; C-terminus assumed)
19 nM | CC[C@H](C)[C@@H]1NC(=O)[C@H](CCCNC(=N)N)NC(=O)[C@H](C)NC(=O)[C@@H]2CSCCC(=O)N3CN(CN(C3)C(=O)CCSC[C@H](NC(=O)[C@H](Cc3c[nH]c4ccccc34)NC(=O)[C@H](CCCCN)NC(=O)[C@H](CCC(N)=O)NC(C)=O)C(=O)N[C@@H](C)C(=O)N3CCC[C@H]3C(=O)N[C@@H](CC(C)C)C(=O)N[C@@H](CO)C(=O)N[C@@H](CC(=O)O)C(=O)N[C@@H](Cc3ccc(O)cc3)C(=O)N[C@@H](Cc3c[nH]c4ccccc34)C(=O)N2)C(=O)CCSC[C@@H](C(N)=O)NC1=O [BCY7631, Ac-QKW-(SEQ ID NO: 106)] (Ac-QKWCAPLSDYWCARIC-NH2; linker 4-12-16 via TATA; C-terminus assumed)
123 nM | CC[C@H](C)[C@@H]1NC(=O)[C@H](C)NC(=O)[C@H](CC(N)=O)NC(=O)[C@@H]2CSCCC(=O)N3CN(CN(C3)C(=O)CCSC[C@H](NC(=O)[C@H](Cc3c[nH]c4ccccc34)NC(=O)[C@H](CCCCN)NC(=O)[C@H](CCC(N)=O)NC(C)=O)C(=O)N[C@@H](C)C(=O)N3CCC[C@H]3C(=O)N[C@@H](CC(C)C)C(=O)N[C@@H](CO)C(=O)N[C@@H](CC(=O)O)C(=O)N[C@@H](Cc3ccc(O)cc3)C(=O)N[C@@H](Cc3c[nH]c4ccccc34)C(=O)N2)C(=O)CCSC[C@@H](C(N)=O)NC1=O [BCY7632, Ac-QKW-(SEQ ID NO: 107)] (Ac-QKWCAPLSDYWCNAIC-NH2; linker 4-12-16 via TATA; C-terminus assumed)
33.6 nM | CC[C@H](C)[C@@H]1NC(=O)[C@@H]2CCCN2C(=O)[C@H](Cc2c[nH]c3ccccc23)NC(=O)[C@H](CO)NC(=O)[C@H](Cc2c[nH]c3ccccc23)NC(=O)[C@H](CC(N)=O)NC(=O)[C@H](CO)NC(=O)[C@H](CCSC)NC(=O)[C@@H]2CSCCC(=O)N3CN(CN(C3)C(=O)CCSC[C@H](NC(C)=O)C(=O)N3CCC[C@H]3C(=O)N[C@@H](Cc3ccccc3)C(=O)NCC(=O)N2)C(=O)CCSC[C@@H](C(N)=O)NC(=O)[C@H](Cc2c[nH]c3ccccc23)NC1=O [BCY7658, Ac-(SEQ ID NO: 12)] (Ac-CPFGCMSNWSWPIWC-NH2; linker 1-5-15 via TATA; C-terminus assumed)
14.8 nM | CC[C@H](C)[C@@H]1NC(=O)[C@@H]2CCCN2C(=O)[C@H](Cc2c[nH]c3ccccc23)NC(=O)[C@H](CO)NC(=O)[C@H](Cc2c[nH]c3ccccc23)NC(=O)[C@H](Cc2c[nH]cn2)NC(=O)[C@H](CCCCN)NC(=O)[C@H](CCSC)NC(=O)[C@@H]2CSCCC(=O)N3CN(CN(C3)C(=O)CCSC[C@H](NC(C)=O)C(=O)N3CCC[C@H]3C(=O)N[C@@H](Cc3ccccc3)C(=O)NCC(=O)N2)C(=O)CCSC[C@@H](C(N)=O)NC(=O)[C@H](Cc2c[nH]c3ccccc23)NC1=O [BCY7662, Ac-(SEQ ID NO: 16)] (Ac-CPFGCMKHWSWPIWC-NH2; linker 1-5-15 via TATA; C-terminus assumed)

Structure (SMILES) | Ki
CC[C@H](C)[C@@H]1NC(=O)[C@@H]2CCCN2C(=O)[C@H](Cc2c[nH]c3ccccc23)NC(=O)[C@H](CO)NC(=O)[C@H](Cc2c[nH]c3ccccc23)NC(=O)[C@H](CC(N)=O)NC(=O)[C@H](CC(=O)O)NC(=O)[C@H](CCSC)NC(=O)[C@@H]2CSCCC(=O)N3CN(CN(C3)C(=O)CCSC[C@H](NC(C)=O)C(=O)N3CCC[C@H]3C(=O)N[C@@H](Cc3ccccc3)C(=O)NCC(=O)N2)C(=O)CCSC[C@@H](C(N)=O)NC(=O)[C@H](Cc2c[nH]c3ccccc23)NC1=O [BCY7659, Ac-(SEQ ID NO: 13)] (Ac-CPFGCMDNWSWPIWC-NH2; linker 1-5-15 via TATA; C-terminus assumed) | 77.9 nM
CC[C@H](C)[C@@H]1NC(=O)[C@@H]2CCCN2C(=O)[C@H](Cc2c[nH]c3ccccc23)NC(=O)[C@H](CO)NC(=O)[C@H](Cc2c[nH]c3ccccc23)NC(=O)[C@H](CC(N)=O)NC(=O)[C@H](CCCCNC(=N)N)NC(=O)[C@H](CCSC)NC(=O)[C@@H]2CSCCC(=O)N3CN(CN(C3)C(=O)CCSC[C@H](NC(C)=O)C(=O)N3CCC[C@H]3C(=O)N[C@@H](Cc3ccccc3)C(=O)NCC(=O)N2)C(=O)CCSC[C@@H](C(N)=O)NC(=O)[C@H](Cc2c[nH]c3ccccc23)NC1=O [BCY7660, Ac-(SEQ ID NO: 59)] | 26.2 nM
CC[C@H](C)[C@@H]1NC(=O)[C@@H]2CCCN2C(=O)[C@H](Cc2c[nH]c3ccccc23)NC(=O)[C@H](CO)NC(=O)[C@H](Cc2cccc3ccccc23)NC(=O)[C@H](CC(N)=O)NC(=O)[C@H](CCCCN)NC(=O)[C@H](CCSC)NC(=O)[C@@H]2CSCCC(=O)N3CN(CN(C3)C(=O)CCSC[C@H](NC(C)=O)C(=O)N3CCC[C@H]3C(=O)N[C@@H](Cc3ccccc3)C(=O)NCC(=O)N2)C(=O)CCSC[C@@H](C(N)=O)NC(=O)[C@H](Cc2c[nH]c3ccccc23)NC1=O [BCY7663, Ac-(SEQ ID NO: 111)] | 25.5 nM
